In ChEMBL document CHEMBL5131534, “Identification of 2-Pyridinylindole-Based Dual Antagonists of Toll-like Receptors 7 and 8 (TLR7/8)” (ACS Med Chem Lett, 2022):

Tests used:
[1] = target: T1, Toll-like receptor 7 (Homo sapiens, UniProt Q9NYK1); assay: Antagonist activity at gardiquimod stimulated human TRL7 overexpressed in HEK293 cells assessed as inhibition of NF kappa B/Ap-1 activation preincubated with compound for 30 mins followed by gardiquimod stimulation measured after 22 hrs by SEAP reporter assay; format: cell-based
T1 sequence (Q9NYK1 whole entry): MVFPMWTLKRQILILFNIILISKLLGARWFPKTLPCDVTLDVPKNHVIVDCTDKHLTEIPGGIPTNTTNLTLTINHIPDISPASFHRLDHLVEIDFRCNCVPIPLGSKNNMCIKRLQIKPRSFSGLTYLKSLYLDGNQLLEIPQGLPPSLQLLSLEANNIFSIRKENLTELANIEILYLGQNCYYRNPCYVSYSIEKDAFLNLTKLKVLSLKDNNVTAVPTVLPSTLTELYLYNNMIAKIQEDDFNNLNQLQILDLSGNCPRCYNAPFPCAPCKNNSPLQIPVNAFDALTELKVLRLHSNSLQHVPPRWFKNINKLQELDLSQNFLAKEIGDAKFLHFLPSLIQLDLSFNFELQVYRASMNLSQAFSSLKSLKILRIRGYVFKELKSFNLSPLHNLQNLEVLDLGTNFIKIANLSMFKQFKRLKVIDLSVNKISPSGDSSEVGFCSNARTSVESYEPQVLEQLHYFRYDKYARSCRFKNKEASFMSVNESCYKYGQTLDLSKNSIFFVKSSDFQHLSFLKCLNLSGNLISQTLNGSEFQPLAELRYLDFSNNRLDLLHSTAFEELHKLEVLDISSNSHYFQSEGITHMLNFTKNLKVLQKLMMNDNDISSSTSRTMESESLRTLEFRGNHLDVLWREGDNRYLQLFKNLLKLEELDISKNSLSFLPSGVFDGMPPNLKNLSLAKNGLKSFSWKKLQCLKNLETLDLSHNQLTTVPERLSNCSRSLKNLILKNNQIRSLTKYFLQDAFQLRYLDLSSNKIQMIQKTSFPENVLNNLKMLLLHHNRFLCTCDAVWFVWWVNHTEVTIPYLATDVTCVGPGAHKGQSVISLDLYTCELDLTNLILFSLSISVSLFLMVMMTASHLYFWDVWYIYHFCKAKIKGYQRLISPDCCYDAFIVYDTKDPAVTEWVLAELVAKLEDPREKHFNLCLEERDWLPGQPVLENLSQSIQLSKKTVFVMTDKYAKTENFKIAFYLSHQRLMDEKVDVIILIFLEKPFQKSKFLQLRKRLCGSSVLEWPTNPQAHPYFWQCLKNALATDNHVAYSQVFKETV

[2] = organism: Homo sapiens; assay: Selectivity ratio of IC50 for human TLR9 to IC50 for human TLR7
[3] = target: T2, Toll-like receptor 8 (Homo sapiens, UniProt Q9NR97); assay: Antagonist activity at R848 stimulated human TRL8 overexpressed in HEK293 cells assessed as inhibition of NF kappa B/Ap-1 activation preincubated with compound for 30 mins followed by R848 stimulation measured after 22 hrs by SEAP reporter assay; format: cell-based
T2 sequence (Q9NR97 whole entry): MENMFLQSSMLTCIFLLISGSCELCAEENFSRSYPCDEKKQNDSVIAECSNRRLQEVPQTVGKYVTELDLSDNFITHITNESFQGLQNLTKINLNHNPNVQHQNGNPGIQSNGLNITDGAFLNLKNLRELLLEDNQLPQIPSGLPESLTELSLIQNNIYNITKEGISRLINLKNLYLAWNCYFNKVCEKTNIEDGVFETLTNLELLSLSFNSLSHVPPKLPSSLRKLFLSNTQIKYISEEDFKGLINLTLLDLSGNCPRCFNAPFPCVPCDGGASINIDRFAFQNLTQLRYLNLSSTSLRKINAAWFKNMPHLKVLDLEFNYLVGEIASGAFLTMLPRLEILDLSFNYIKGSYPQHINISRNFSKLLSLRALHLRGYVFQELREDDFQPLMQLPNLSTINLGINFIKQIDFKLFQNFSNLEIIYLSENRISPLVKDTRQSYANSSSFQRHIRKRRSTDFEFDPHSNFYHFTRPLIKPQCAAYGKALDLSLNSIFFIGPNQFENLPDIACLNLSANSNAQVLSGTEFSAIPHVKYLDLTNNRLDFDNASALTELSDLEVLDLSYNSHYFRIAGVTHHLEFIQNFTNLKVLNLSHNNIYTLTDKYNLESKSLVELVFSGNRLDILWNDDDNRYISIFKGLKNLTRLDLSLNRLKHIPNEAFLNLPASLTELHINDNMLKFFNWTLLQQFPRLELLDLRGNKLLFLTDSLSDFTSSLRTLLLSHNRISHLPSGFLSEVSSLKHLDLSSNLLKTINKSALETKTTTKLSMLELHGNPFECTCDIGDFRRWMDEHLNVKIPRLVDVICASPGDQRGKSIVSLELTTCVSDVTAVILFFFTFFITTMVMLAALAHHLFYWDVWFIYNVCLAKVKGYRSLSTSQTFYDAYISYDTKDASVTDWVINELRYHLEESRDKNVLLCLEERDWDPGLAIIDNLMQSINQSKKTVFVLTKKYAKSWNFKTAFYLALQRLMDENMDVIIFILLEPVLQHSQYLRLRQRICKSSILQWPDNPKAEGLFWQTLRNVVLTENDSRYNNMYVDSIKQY

[4] = system: Mus musculus; assay: Anti-inflammatory activity against MRL/Ipr Systemic lupus erythematosus mouse model assessed as inhibition of proteinuria at 10 mg/kg, po administered for 8 weeks and measured 24 hrs post final dose relative to control; format: functional; design: scale not given: the % may be the effect or the level left; details: time 1368 hrs
[5] = system: Mus musculus; assay: Anti-inflammatory activity against MRL/Ipr Systemic lupus erythematosus mouse model assessed as inhibition of anti-Sm/RNP Ab titer at 10 mg/kg, po administered for 8 weeks and measured 24 hrs post final dose relative to control; format: functional; design: scale not given: the % may be the effect or the level left; details: time 1368 hrs
[6] = Toxicity in MRL/Ipr Systemic lupus erythematosus mouse model assessed as change in body weight at 10 mg/kg, po administered for 8 weeks and measured 24 hrs post final dose; format: organism-based; details: in vivo, 1368 h
[7] = system: Mus musculus; assay: Anti-inflammatory activity against MRL/Ipr Systemic lupus erythematosus mouse model assessed as inhibition of anti-dsDNA Ab titer at 10 mg/kg, po administered for 8 weeks and measured 24 hrs post final dose relative to control; format: functional; design: scale not given: the % may be the effect or the level left; details: time 1368 hrs
[8] = system: Mus musculus; assay: Anti-inflammatory activity against MRL/Ipr Systemic lupus erythematosus mouse model assessed as inhibition of urinary NGAL at 10 mg/kg, po administered for 8 weeks and measured 24 hrs post final dose relative to control; format: functional; design: scale not given: the % may be the effect or the level left; details: time 1368 hrs
[9] = Toxicity in MRL/Ipr Systemic lupus erythematosus mouse model assessed as relative spleen weight at 10 mg/kg, po administered for 8 weeks and measured 24 hrs post final dose relative to control; format: organism-based; details: in vivo, 1368 h

| IC50 [1] | Ratio IC50 [2] | Compound | also measured |
| --- | --- | --- | --- |
| 3300 nM | – | CNCCN1CCC(c2ccc3[nH]c(-c4cncc(OC)c4)c(C)c3c2)CC1 | – |
| – | 130 | Cc1cc(-c2[nH]c3ccc(C4CCNCC4)cc3c2C(C)C)c(C)c(C)n1 | – |
| 200 nM | – | CC(C)c1c(-c2ccncc2CO)[nH]c2ccc(C3CCNCC3)cc12 | – |
| 24 nM | – | CCc1c(-c2ccnc(C)c2)[nH]c2ccc(C3CCNCC3)cc12 | – |
| 1.9 nM | – | COc1cc(-c2[nH]c3ccc(C4CCNCC4)cc3c2C(C)C)cc(C)n1 | – |
| – | 1 | CCc1c(-c2ccnc(C)c2)[nH]c2c(F)cc(C3CCNCC3)cc12 | – |
| – | 91 | Cc1cnccc1-c1[nH]c2ccc(C3CCNCC3)cc2c1C(C)C | – |
| 92 nM | – | CC(C)c1c(-c2ccnc(C3CC3)c2)[nH]c2ccc(C3CCNCC3)cc12 | – |
| 74 nM | – | COc1cc(-c2[nH]c3ccc(C4CCNCC4)cc3c2C(C)C)ccn1 | – |
| 28 nM | 25 | Cc1nccc(-c2[nH]c3ccc(C4CCNCC4)cc3c2C(C)C)c1C | – |
| – | 19 | CC(C)c1c(-c2ccnc(CO)c2)[nH]c2ccc(C3CCNCC3)cc12 | – |
| 300 nM | – | Cc1nc(C)c(C)c(-c2[nH]c3ccc(C4CCNCC4)cc3c2C(C)C)c1C | – |
| 22 nM | – | Cc1cc(-c2[nH]c3ccc(C4CCNCC4)cc3c2C(C)C)cc(C2CC2)n1 | – |
| 17 nM | 77 | Cc1cc(-c2[nH]c3cc(C(F)(F)F)c(C4CCNCC4)cc3c2C(C)C)ccn1 | IC50 [3]: 420 nM |
| 0.9 nM | – | Cc1cc(-c2[nH]c3ccc(C4CCNCC4)c(F)c3c2C(C)C)cc(C)n1 | – |
| > 10000 nM | – | CNCCN1CCC(c2ccc3[nH]c(-c4cccc(OC)n4)c(C)c3c2)CC1 | – |
| – | – | C[C@]12C=CC(=O)C=C1CC[C@@H]1[C@@H]2[C@@H](O)C[C@@]2(C)[C@H]1CC[C@]2(O)C(=O)CO [PREDNISOLONE] | Activity [4]: 77%; Activity [5]: 79%; Activity [6]: Toxic; Activity [7]: 85%; Activity [8]: 74%; Activity [9]: 88% |
| 8.2 nM | – | Cc1cc(-c2[nH]c3cc(C)c(C4CCNCC4)cc3c2C(C)C)ccn1 | – |
| 0.8 nM | – | Cc1cc(-c2[nH]c3cc(F)c(C4CCNCC4)cc3c2C(C)C)ccn1 | – |
| 13 nM | – | CCc1c(-c2ccnc(C)c2)[nH]c2cc(F)c(C3CCNCC3)c(F)c12 | – |
| 14 nM | – | CCc1c(-c2ccnc(C)c2)[nH]c2ccc(C3CCNCC3)c(C)c12 | – |
| 57 nM | – | CCc1cc(-c2[nH]c3ccc(C4CCNCC4)cc3c2C(C)C)cc(C)n1 | – |
| – | 160 | Cc1cc(-c2[nH]c3ccc(C4CCNCC4)cc3c2C(C)C)ccn1 | – |
| – | 370 | Cc1cc(-c2[nH]c3ccc(C4CCNCC4)cc3c2C(C)C)c(C)cn1 | – |
| > 10000 nM | – | CNCCN1CCC(c2ccc3[nH]c(-c4cccnc4)c(C)c3c2)CC1 | – |
| > 10000 nM | – | CNCCN1CCC(c2ccc3[nH]c(-c4ccc(OC)nc4)c(C)c3c2)CC1 | – |
| 29 nM | – | CC(C)c1c(-c2ccncc2)[nH]c2ccc(C3CCNCC3)cc12 | – |
| – | 1050 | Cc1cc(-c2[nH]c3ccc(C4CCNCC4)cc3c2C(C)C)cc(F)n1 | – |
